In assay [1] the target is T1, GST-BRCA1 tandem BRCT domains interaction with phosphoproteins (Homo sapiens, UniProt P38398).
T1 construct: 15 μM GST-BRCA1 BRCT domains (residues 1634-1863); made in house; host or cells: E. coli DH5a
Briefly: GST-BRCA1 tandem BRCT pull-down of DNA damage-induced phosphoproteins from irradiated U2OS cells. In kind it is binding. How it is done:
(§1) U2OS cells were either treated with 10 Gy of ionizing radiation or mock irradiated and allowed to recover for 30-120 minutes. Cells were subsequently lysed in 50 mM Tris/HCl (pH7.6), 150 mM NaCl, 1.0% NP-40, 5 mM EDTA, 2 mM DTT, 8 μg/mL pepstatin, 8 μg/mL aprotinin, 8 μg/mL leupeptin, 2 mM Na3VO4, 10 mM NaF, 1 μM microcystin. The lysates (0.5-2 mg) were incubated with 20 μL glutathione beads containing 10-20 μg of GST-PTIP BRCT domains (residues 550-757), GST-BRCA1 BRCT domains (residues 1634-1863), or GST for 120 minutes at 4° C. Beads were washed three times with lysis buffer. Precipitated proteins were eluted in sample buffer and detected by blotting with anti-ATM/ATR substrate (pSer/pThr)Gln antibody (CELL SIGNALING TECHNOLOGY, Inc Beverly, Mass.), polyclonal anti-53BP1 (ONCOGENE […] PRODUCTS, San Diego, Calif. 92121), or monoclonal anti-HA (COVANCE Inc, Princeton, N.J.). For peptide competition experiments, GST-PTIP BRCT domains or GST-BRCA1 BRCT domains were immobilized on glutathionine beads and preincubated with 350 μM of BRCTtide-optimal, 7pT, 7T, pSQ-library, SQ-library, or pTP-library for 1 hour at 4° C. and washed three times with lysis buffer.

Assay [2] deals with GST-PTIP tandem BRCT domains interaction with 53BP1. Briefly: GST-PTIP tandem BRCT pull-down of 53BP1 from irradiated U2OS cells. The assay is classed as binding, human. To be noted: 25 mM caffeine prior to irradiation, U2OS. On the procedure: as §1
Assay [3] deals with T2, GST-PTIP BRCT domains (residues 550-757) (Homo sapiens, UniProt Q6ZW49).
T2 construct: 15 μM GST-PTIP BRCT domains (residues 550-757); made in house; host or cells: E. coli DH5a
T2 sequence (Q6ZW49 862-1069): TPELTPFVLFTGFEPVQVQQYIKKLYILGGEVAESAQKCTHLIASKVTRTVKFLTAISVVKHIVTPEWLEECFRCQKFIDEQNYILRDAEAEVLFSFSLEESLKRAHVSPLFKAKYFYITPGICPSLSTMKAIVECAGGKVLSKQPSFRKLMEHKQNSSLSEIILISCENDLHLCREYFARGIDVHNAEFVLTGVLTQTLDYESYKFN
Nature of the assay: Isothermal titration calorimetry of peptides with PTIP tandem BRCT domains. The assay is classed as binding. The note with it: PTIP; N.D.B = no detectable binding by ITC, tandem BRCT domain concentration of at least 150 μM. The text has this:
(§2) For deletion mapping of the PTIP and BRCA1 BRCT phospho-binding region and for expression of MDC 1, 53BP1 and Rad9 (FIG. 17-18), fragments were generated by PCR for in vitro transcription/translation and cloned into a pcDNA3.1 expression vector (Invitrogen, San Diego, Calif.). For production of recombinant GST-PTIP BRCT domains and GSTBRCA1 BRCT domains, residues 550-757 of PTIP and residues 1634-1863 of BRCA1 were ligated into the EcoRI and NotI sites of pGEX-4T1 (Pharmacia, Peapack, N.J.) and subsequently transformed into DH5a E. Coli. Protein induction occurred at 37° C. for 4 hours or at 25° C. for 16 hours in the presence of 0.4 mM IPTG. For peptide filter blot analysis and measurements of peptide binding affinity by ITC, GSTPTIP BRCT domains (residues 550-757) and GST-BRCA1 BRCT domains (residues 1634-1863) were isolated from bacterial lysates using glutathione agarose, eluted with 40 mM glutathione, and dialyzed into 50 mM Tris/HCl (pH 8.1), 300 mM NaCl. The GFP-PTIP constructs FL (residues 1-757), !BRCT (residues 1-550), or (BRCT)2 (residues 550-757) were cloned into the EcoRI and SalI sites of the pEGFP-C2 (BD Biosciences Clontech Franklin Lakes, N.J.) expression vector.
(§3) Peptides were synthesized by solid phase technique with three C-terminal lysines to enhance solubility. The peptides were then purified by reverse phase HPLC following deprotection and confirmed by MALDI-TOF mass spectrometry. Calorimetry measurements were performed using a VP-ITC microcalorimeter (MicroCal Inc., Studio City, Calif.). Experiments involved serial 10 μL injections of peptide solutions (20 μM-150 μM) into a sample cell containing 15 μM GST-PTIP BRCT domains (residues 550-757) or 15 μM GST-BRCA1 BRCT domains (residues 1634-1863) in 50 mM Tris/HCl (pH 8.1), 300 mM NaCl. Twenty injections were performed with 240 second intervals between injections and a reference power of 25 μCal/s. Binding isotherms were plotted and analyzed using ORIGIN Software (MicroCal Inc. Studio City, Calif.).

Assay [4] has as its target T3, GST-PTIP tandem BRCT domains interaction with 53BP1 (Homo sapiens, UniProt Q6ZW49).
T3 construct: 10-20 μg of GST-PTIP BRCT domains (residues 550-757); made in house; host or cells: E. coli DH5a (GST-PTIP BRCT); 53BP1 endogenous from U2OS lysate
Nature of the assay: GST-PTIP tandem BRCT pull-down of 53BP1 from irradiated U2OS cells. In kind it is binding. To be noted: 350 μM peptide or library, 1 hour at 4° C., IR treated U2OS. How it is done:
as §1

The target of assay [5] is T4, GST-BRCA1 BRCT domains (residues 1634-1863) (Homo sapiens, UniProt P38398).
T4 construct: 15 μM GST-BRCA1 BRCT domains (residues 1634-1863); made in house; host or cells: E. coli DH5a
T4 sequence (P38398 1634-1863): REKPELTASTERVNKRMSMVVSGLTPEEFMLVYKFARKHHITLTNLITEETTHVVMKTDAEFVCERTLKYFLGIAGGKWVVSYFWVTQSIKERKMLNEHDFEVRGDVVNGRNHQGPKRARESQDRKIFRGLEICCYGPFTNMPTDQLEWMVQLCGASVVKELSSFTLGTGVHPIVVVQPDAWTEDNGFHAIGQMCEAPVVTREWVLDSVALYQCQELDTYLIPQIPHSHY
Briefly: Isothermal titration calorimetry of peptides with BRCA1 tandem BRCT domains. In kind it is binding. To be noted: BRCA1; N.D.B = no detectable binding by ITC, tandem BRCT domain concentration of at least 150 μM.
From the text: as §2, §3
For orientation: Isothermal titration calorimetry measures the heat released or taken up as one component is titrated into another.

This note sets out measurements from patent US20110104713A1, “PRODUCTS AND PROCESSES FOR MODULATING PEPTIDE-PEPTIDE BINDING DOMAIN INTERACTIONS” (priority 2002, published 2011).

Entries after “also recorded” stand apart in the source; their conditions may differ.

T1 sequence (P38398 1634-1863): as above
T3 sequence (Q6ZW49 862-1069): as the sequence (Q6ZW49 862-1069) above

As for `Cn1c(=O)c2c(ncn2C)n(C)c1=O` [caffeine, reference compound], the “effect of caffeine pre-treatment of cells on BRCA1 BRCT binding to (pSer or pThr)-Gln-containing proteins” value in assay [1] (caffeine prior to γ-irradiation, U2OS) is on record as “largely eliminated”. For the same compound, the “effect of caffeine treatment of cells on PTIP BRCT interaction with 53BP1” value in assay [2] was “disrupted the interaction; also recorded: eliminated”.

Regarding GAAYDITQVFPFAKKK [BRCTtide-7T], the “Kd (N.D.B.)” value in assay [3] and in assay [5] was “N.D.B” throughout. The “effect of pre-incubation with peptide/library on BRCA1 BRCT binding to (pSer or pThr)-Gln-containing proteins” value in assay [1] (350 μM peptide or library, U2OS lysates after 10 Gy) is recorded as “not”. Moreover, the entries for the “effect of bead pre-incubation with peptide/library on PTIP BRCT interaction with 53BP1” value in assay [4] and in assay [4] (listed as non-phosphorylated counterpart) were “not” and “not eliminated”, respectively.
